Consider 1 compound from publication PMC6320956, “O-Aminoalkyl-O-Trimethyl-2,3-Dehydrosilybins: Synthesis and In Vitro Effects Towards Prostate Cancer Cells” (Molecules, 2018).

The subject of one test is PC-3 cells. The test is described as follows: WST-1 cell proliferation assay, PC-3. The format is cell-based, human. The following applies: Homo sapiens, PC-3, 72 h, WST-1, three days of exposure, mean ± SD, n = 3. The essentials:
(§1)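 Cells (3,200/well) were treated with five compound doses for three days at 37 °C, with 0.25% DMSO as vehicle. WST-1 reagent was added for 3 h and absorbance read at 430 nm. IC50 values were derived by linear proliferative-inhibition fitting over at least five doses.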

Another test relates to DU145 cells. Description: WST-1 cell proliferation assay, DU145. The format is cell-based, human. The following applies: Homo sapiens, DU-145, 72 h; WST-1, three days of exposure, mean ± SD, n = 3. Put shortly:
as §1

The subject of a further test is LNCaP cells. The test is described as follows: WST-1 cell proliferation assay, LNCaP. The format is cell-based, human. The following applies: Homo sapiens, LNCaP, 72 h, WST-1, three days of exposure, mean ± SD, n = 3. Put shortly:
as §1

Test [1] relates to MCF 10A non-neoplastic human mammary epithelial cell line. The test is described as follows: WST-1 cell proliferation assay, MCF 10A non-neoplastic cells. The test is classed as cell-based. The following applies: Homo sapiens, MCF-10A, 72 h; WST-1, three days of exposure, mean ± SD, n = 3. As to the method:
(§2) Silibinin and five potent derivatives (11, 29, 31, 37, and 40) were selected for further evaluation against the MCF 10A non-neoplastic human mammary epithelial cell line and PWR-1E non-neoplastic human prostate epithelial cells.
(§3) PC-3, DU145, or LNCaP cells were plated in 96-well plates at a density of 3,200 per well in 200 µL of culture medium. The cells were then separately treated with silibinin, or synthesized silibinin derivatives, at five different doses for three days, while equal treatment volumes of DMSO (0.25%) were used as the vehicle control. The cells were cultured in a CO2 incubator at 37 °C for three days. A total of 10 µL of the premixed WST-1 cell proliferation reagent (Clontech) was added to each well. After mixing gently for one min on an orbital shaker, the cells were incubated for an additional 3 h at 37 °C. To ensure a homogeneous distribution of color, it is important to mix gently on an orbital shaker for one min. The absorbance of each well was measured using a microplate reader (Synergy HT, BioTek, Winooski, VT, USA) at a wavelength of 430 nm. […] For calculating the IC50 values, a linear proliferative inhibition was made based on at least five dosages for each compound.

For test [2], the system named is PWR-1E non-neoplastic human prostate epithelial cells. The test is described as follows: WST-1 cell proliferation assay, PWR-1E non-neoplastic cells. The format is cell-based. To be noted: Homo sapiens, PWR-1E, 72 h; WST-1, three days of exposure, mean ± SD, n = 3. As to the method: as §2, §3
Test [3] relates to prostate cancer cell models. Also noted: method as in PMID 17201169, PMID 26446382, PMID 27557939, PMID 21507570. To be noted: cited from earlier work.

Each structure is given as a SMILES string.

Regarding `COc1cc(C2Oc3cc([C@H]4Oc5cc(O)cc(O)c5C(=O)[C@@H]4O)ccc3OC2CO)ccc1O` (stereo partly drawn) [Silibinin, reference compound], the IC50 in the test with PC-3 cells was 72.7 ± 3.15 µM; with DU145 cells, 93.3 ± 13.7 µM; with LNCaP cells, 43.7 ± 10.9 µM; in test [1] it was 23.8 ± 0.96 µM; in test [2] it was 20.4 ± 4.09 µM; in test [3], 40 to 106 µM.
